Earlier results on two compounds are cited in US6348193B1, “Method for inhibiting pathogenic fungi and bacteria in plants using Pseudomonas aureofaciens” (Board of Trustees of Michigan State University, priority 1999, dated 2002).

Data set [1] has as its system G. graminis var. tritici. The settings on record: in the soil atmosphere.
For data set [2], the system named is Magnaporthe poae. As to conditions: in vivo.

For the compound `C=C` [Ethylene, ethylene], in data set [1], the “Concentration inhibitory to G. graminis var. tritici” value is “less than 5 parts-per-million”.
Turning to faeriefungin, the “Management of summer patch disease of turfgrass” value in data set [2] is “equal to that of the chemical fungicide fenarimol”.
